# Results reported in paper PMC9848300, “Discovery of novel enasidenib analogues targeting inhibition of mutant isocitrate dehydrogenase 2 as antileukaemic agents” (Journal of Enzyme Inhibition and Medicinal Chemistry, 2023).
# Read-outs that look alike come from different tables or passages of the source.
# Tests used:
# Format in all cases: cell-based
# [1] = test system: IGROV1; assay: NCI 60 antitumor screening (single dose / five doses); conditions: Homo sapiens
# [2] = test system: SF-295; assay: as above; conditions: Homo sapiens
# [3] = test system: OVCAR-3; assay: NCI 60 antitumor screening (single dose); conditions: Homo sapiens; OVCAR-3 (ovarian cancer), single dose 10 μM; read-out: Growth inhibition percentage (GI %)
# Outline: (§1)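 Percent growth inhibition, calculated as 100 minus percent growth (G%) of treated cells, following a single 10 μM exposure in the NCI 60 human cancer cell screen; triplicate runs.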
# [4] = test system: U251; assay: NCI 60 antitumor screening (single dose); conditions: Homo sapiens, U-251; U251 (CNS cancer), single dose 10 μM; read-out: Growth inhibition percentage (GI %)
# Outline: as §1
# [5] = test system: HCC-2998; assay: NCI 60 antitumor screening (single dose); conditions: Homo sapiens; HCC-2998 (colon cancer), single dose 10 μM; read-out: Growth inhibition percentage (GI %)
# Outline: as §1
# [6] = test system: HOP-62; assay: NCI 60 antitumor screening (single dose); conditions: Homo sapiens; HOP-62 (non-small cell lung cancer), single dose 10 μM; read-out: Growth inhibition percentage (GI %)
# Outline: as §1
# [7] = test system: HS 578T; assay: NCI 60 antitumor screening (single dose); conditions: Homo sapiens; HS 578T (breast cancer), single dose 10 μM; read-out: Growth inhibition percentage (GI %)
# Outline: as §1
# [8] = test system: OVCAR-8; assay: NCI 60 antitumor screening (single dose); conditions: Homo sapiens; OVCAR-8 (ovarian cancer), single dose 10 μM; read-out: Growth inhibition percentage (GI %)
# Outline: as §1
# [9] = test system: OVCAR-4; assay: NCI 60 antitumor screening (single dose); conditions: Homo sapiens; OVCAR-4 (ovarian cancer), single dose 10 μM; read-out: Growth inhibition percentage (GI %)
# Outline: as §1
# [10] = test system: SK-OV-3; assay: NCI 60 antitumor screening (single dose); conditions: Homo sapiens; SK-OV-3 (ovarian cancer), single dose 10 μM; read-out: Growth inhibition percentage (GI %)
# Outline: as §1
# [11] = test system: KM 12; assay: NCI 60 antitumor screening (single dose); conditions: Homo sapiens, KM12; KM 12 (colon cancer), single dose 10 μM; read-out: Growth inhibition percentage (GI %)
# Outline: as §1
# [12] = test system: PC-3; assay: NCI 60 antitumor screening (single dose); conditions: Homo sapiens; PC-3 (prostate cancer), single dose 10 μM; read-out: Growth inhibition percentage (GI %)
# Outline: as §1
# [13] = test system: TK-10; assay: NCI 60 antitumor screening (single dose); conditions: Homo sapiens; TK-10 (renal cancer), single dose 10 μM; read-out: Growth inhibition percentage (GI %)
# Outline: as §1
# [14] = test system: NCI-H226; assay: NCI 60 antitumor screening (single dose); conditions: Homo sapiens; NCI-H226 (non-small cell lung cancer), single dose 10 μM; read-out: Growth inhibition percentage (GI %)
# Outline: as §1
# [15] = test system: SNB-19; assay: NCI 60 antitumor screening (single dose); conditions: Homo sapiens; SNB-19 (CNS cancer), single dose 10 μM; read-out: Growth inhibition percentage (GI %)
# Outline: as §1
# [16] = test system: OVCAR-5; assay: NCI 60 antitumor screening (single dose); conditions: Homo sapiens; OVCAR-5 (ovarian cancer), single dose 10 μM; read-out: Growth inhibition percentage (GI %)
# Outline: as §1
# [17] = test system: NCI-H460; assay: NCI 60 antitumor screening (single dose); conditions: Homo sapiens; NCI-H460 (non-small cell lung cancer), single dose 10 μM; read-out: Growth inhibition percentage (GI %)
# Outline: as §1
# [18] = test system: COLO 205; assay: NCI 60 antitumor screening (single dose / five doses); conditions: Homo sapiens
# [19] = test system: SR; assay: as above; conditions: Homo sapiens, read-out: Growth inhibition percentage (GI %)
# [20] = test system: ACHN; assay: as above; conditions: Homo sapiens; for inhibition at 10 µM: read-out: Growth inhibition percentage (GI %)
# [21] = test system: LOX IMVI; assay: as above; conditions: Homo sapiens; for inhibition at 10 µM: read-out: Growth inhibition percentage (GI %)
# [22] = test system: SN 12C; assay: as above; conditions: Homo sapiens, SN12C; for inhibition at 10 µM: read-out: Growth inhibition percentage (GI %)
# [23] = test system: UACC-257; assay: as above; conditions: Homo sapiens
# [24] = test system: SK-MEL-2; assay: as above; conditions: Homo sapiens
# [25] = test system: K-562; assay: as above; conditions: Homo sapiens
# [26] = test system: EKVX; assay: as above; conditions: Homo sapiens; for inhibition at 10 µM: read-out: Growth inhibition percentage (GI %)
# [27] = test system: HCT-116; assay: as above; conditions: Homo sapiens
# [28] = test system: T-47D; assay: as above; conditions: Homo sapiens, T47D; for inhibition at 10 µM: read-out: Growth inhibition percentage (GI %)
# [29] = IGROV-1, IGROV1 (ovarian cancer), single dose 10 μM, read-out: Growth inhibition percentage (GI %)
# [30] = SF-295 (CNS cancer), single dose 10 μM, read-out: Growth inhibition percentage (GI %)
# [31] = COLO 205 (colon cancer), single dose 10 μM, read-out: Growth inhibition percentage (GI %)
# [32] = SR (leukaemia), single dose 10 μM
# [33] = ACHN (renal cancer), single dose 10 μM
# [34] = LOX IMVI (melanoma), single dose 10 μM
# [35] = SN 12C (renal cancer), single dose 10 μM
# [36] = UACC-257 (melanoma), single dose 10 μM, read-out: Growth inhibition percentage (GI %)
# [37] = SK-MEL-2 (melanoma), single dose 10 μM, read-out: Growth inhibition percentage (GI %)
# [38] = K562, K-562 (leukaemia), single dose 10 μM, read-out: Growth inhibition percentage (GI %)
# [39] = EKVX (non-small cell lung cancer), single dose 10 μM
# [40] = HCT-116 (colon cancer), single dose 10 μM, read-out: Growth inhibition percentage (GI %)
# [41] = T-47D (breast cancer), single dose 10 μM
Structure (SMILES),"inhibition at 10 µM [1, 29]","inhibition at 10 µM [2, 30]",inhibition at 10 µM [3],inhibition at 10 µM [4],inhibition at 10 µM [5],inhibition at 10 µM [6],inhibition at 10 µM [7],inhibition at 10 µM [8],inhibition at 10 µM [9],inhibition at 10 µM [10],inhibition at 10 µM [11],inhibition at 10 µM [12],inhibition at 10 µM [13],inhibition at 10 µM [14],inhibition at 10 µM [15],inhibition at 10 µM [16],inhibition at 10 µM [17],"inhibition at 10 µM [18, 31]","inhibition at 10 µM [19, 32]","inhibition at 10 µM [20, 33]",other results
"C(=N\Nc1nc(N/N=C/c2ccc3c(c2)OCO3)nc(N2CCCCC2)n1)/c1ccc2c(c1)OCO2 [compound 7k, 2,4-Bis[(E)-2-(2H-1,3-Benzodioxol-5-ylmethylidene)hydrazin-1-yl]-6-(piperidin-1-yl)-1,3,5-triazine]",23.1%,22.2%,-5.21%,18.6%,16.2%,-22.5%,-4.09%,9.89%,-9.55%,-39.5%,13.8%,26.4%,-21%,-0.61%,19.7%,-18.2%,9.41%,14.1%,99.9%,5.09%,"inhibition at 10 µM [21, 34]: 52.1%; inhibition at 10 µM [22, 35]: 20.3%; inhibition at 10 µM [23, 36]: -7.99%; inhibition at 10 µM [24, 37]: -2.84%; inhibition at 10 µM [25, 38]: 58.9%; inhibition at 10 µM [26, 39]: 6.27%; inhibition at 10 µM [27, 40]: 52.1%; inhibition at 10 µM [28, 41]: 12.8%"
"Fc1cccc(Cl)c1/C=N/Nc1nc(N/N=C/c2c(F)cccc2Cl)nc(N2CCCCC2)n1 [compound 7l, 2,4-Bis[(E)-2-[(2-Chloro-6-fluorophenyl)methylidene]hydrazin-1-yl]-6-(piperidin-1-yl)-1,3,5-triazine]",82.3%,97.4%,77.3%,73.2%,75.7%,74.1%,66.7%,74.2%,79%,60.9%,89.2%,81.3%,72.8%,46.1%,74.2%,72.2%,80.1%,117%,83.9%,95.8%,"GI50 ([1]; IGROV-1, IGROV1, five doses (0.01–100 μM), read-out: GI50): 3160 nM; GI50 ([2]; SF-295, five doses (0.01–100 μM), read-out: GI50): 1010 nM; GI50 ([18]; COLO 205, five doses (0.01–100 μM), read-out: GI50): 1780 nM; GI50 ([20]; ACHN, five doses (0.01–100 μM), read-out: GI50): 3040 nM; inhibition at 10 µM [21, 34]: 80.4%; GI50 ([21]; LOX IMVI, five doses (0.01–100 μM), read-out: GI50): 3770 nM; inhibition at 10 µM [22, 35]: 76.8%; GI50 ([22]; SN 12C, five doses (0.01–100 μM), read-out: GI50): 2850 nM; inhibition at 10 µM [23, 36]: 88.3%; GI50 ([23]; UACC-257, five doses (0.01–100 μM), read-out: GI50): 2390 nM; inhibition at 10 µM [24, 37]: 126%; GI50 ([24]; SK-MEL-2, five doses (0.01–100 μM)): 1690 nM; inhibition at 10 µM [25, 38]: 67.7%; GI50 ([25]; K562, K-562, five doses (0.01–100 μM), read-out: GI50): 3080 nM; inhibition at 10 µM [26, 39]: 86.2%; GI50 ([26]; EKVX, five doses (0.01–100 μM), read-out: GI50): 1540 nM; inhibition at 10 µM [27, 40]: 80.5%; GI50 ([27]; HCT-116, five doses (0.01–100 μM), read-out: GI50): 2830 nM; inhibition at 10 µM [28, 41]: 89%; GI50 ([28]; T-47D, five doses (0.01–100 μM), read-out: GI50): 1710 nM"
"C/C(=N\Nc1nc(N/N=C(\C)c2ccc([N+](=O)[O-])cc2)nc(N2CCOCC2)n1)c1ccc([N+](=O)[O-])cc1 [compound 8a, 2-(Morpholin-4-yl)-4,6-bis[(E)-2-[1–(4-nitrophenyl)ethylidene]hydrazin-1-yl]-1,3,5-triazine]",–,–,11.6%,7.36%,3.95%,13.8%,21.3%,36.4%,22.4%,-13%,17.9%,23.4%,19.2%,58.1%,36.9%,4.46%,21.9%,–,–,–,"inhibition at 10 µM ([1]; IGROV-1, read-out: Growth inhibition percentage (GI %)): 6.22%; inhibition at 10 µM ([2]; SF-295, read-out: Growth inhibition percentage (GI %)): 33.5%; inhibition at 10 µM ([18]; COLO 205, read-out: Growth inhibition percentage (GI %)): 5.21%; inhibition at 10 µM ([19]; SR): -13.1%; inhibition at 10 µM ([20]; ACHN): 22.1%; inhibition at 10 µM ([21]; LOX IMVI): 61.1%; inhibition at 10 µM [22]: -27.4%; inhibition at 10 µM ([23]; UACC-257, read-out: Growth inhibition percentage (GI %)): 0.81%; inhibition at 10 µM ([24]; SK-MEL-2, read-out: Growth inhibition percentage (GI %)): 3.61%; inhibition at 10 µM ([25]; K562, read-out: Growth inhibition percentage (GI %)): 20.3%; inhibition at 10 µM ([26]; EKVX): 31.9%; inhibition at 10 µM ([27]; HCT-116, read-out: Growth inhibition percentage (GI %)): 29.4%; inhibition at 10 µM [28]: 45.1%"
"O=C1Nc2ccc(Cl)cc2/C1=N\Nc1nc(N/N=C2/C(=O)Nc3ccc(Cl)cc32)nc(N2CCOCC2)n1 [compound 8b, (3E)-5-Chloro-3-[2–(4-{2-[(3E)-5-chloro-2-oxo-2,3-dihydro-1H-indol-3-ylidene]hydrazin-1-yl}6-(morpholin-4-yl)-1,3,5-triazin-2-yl)hydrazin-1-ylidene]-2,3-dihydro-1H-indol-2-one]",45%,54.4%,47.3%,96.2%,24.5%,62.4%,108%,49.9%,21.3%,44.5%,18.8%,43.9%,-18.5%,42.7%,109%,4.93%,11.8%,51.3%,70.8%,25.5%,"inhibition at 10 µM [21, 34]: 76.8%; inhibition at 10 µM [22, 35]: 56.1%; inhibition at 10 µM [23, 36]: 18%; inhibition at 10 µM [24, 37]: 34.7%; inhibition at 10 µM [25, 38]: 67.1%; inhibition at 10 µM [26, 39]: 14.8%; inhibition at 10 µM [27, 40]: 54.6%; inhibition at 10 µM [28, 41]: 70.7%"
